Measured values: patent US20120053318A1, “METHOD OF RADIOLABELING” (CENTRE FOR PROBE DEVELOPMENT AND COMMERCIALIZATION, priority 2010, published 2012)

What was measured:
[1] = molecular target: urokinase plasminogen activator receptor (uPAR) (Homo sapiens, UniProt Q03405); test: binding affinity of Re complexes of the peptides for uPAR; details: isostructural to the Tc analogues
[2] = oils selected based on biocompatibility; cited from earlier work

Sequence of urokinase plasminogen activator receptor (uPAR) (Q03405 23-305): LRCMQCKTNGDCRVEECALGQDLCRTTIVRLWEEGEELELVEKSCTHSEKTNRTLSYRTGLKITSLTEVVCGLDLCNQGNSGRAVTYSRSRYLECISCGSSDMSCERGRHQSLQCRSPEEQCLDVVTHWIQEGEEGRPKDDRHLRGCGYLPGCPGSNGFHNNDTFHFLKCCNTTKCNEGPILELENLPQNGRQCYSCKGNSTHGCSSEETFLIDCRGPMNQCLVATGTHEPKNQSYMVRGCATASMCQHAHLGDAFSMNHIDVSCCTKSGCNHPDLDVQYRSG

Ki [1] [nM] | Compound | LD50 [2]
0.39 ± 0.1 | D-Cha-F-s-r-Y-L-W-S-SAACII [L2] | 
1.37 ± 0.83 | SAACII-S-G-S-G-D-Cha-F-s-r-Y-L-W-S [L1] | 
 | CC(C)CC(C)(C)C [isooctane] | greater than 2000 mg/kg
